pIC50: −log10 of the molar value.
Each compound was assayed against purified PDE1A enzyme (Homo sapiens, UniProt P54750) (assay: In vitro PDE1A assay, dose response (Biomol Cyclic Nucleotide Phosphodiesterase Assay Kit, colorimetric)). Conditions: 100 μM cAMP, 45 min at 37° C., 8 points from 20 μM, duplicate.
Assay type: biochemical
In short: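 Purified PDE1A with 100 μM cAMP and 5′-nucleotidase, incubated 45 min at 37° C in Tris 20 mM pH 7.4 with calmodulin, MgCl2 and CaCl2; released phosphate read by malachite-green absorbance at 615 nm. Duplicate 8-point ⅓ dilutions from 20 μM in 1% DMSO; 10 μM vardenafil defines 100% inhibition.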

Row | Structure (SMILES) | pIC50
1 | CCCc1nn(C)c2c(=O)[nH]c(N(C)Cc3ccc(Cl)c(Cl)c3)nc12 [Example 2, 5-((3,4-dichlorobenzyl)(methyl)amino)-1-methyl-3-propyl-1H-pyrazolo[4,3-d]pyrimidin-7(6H)-one] | > 7.00
2 | Cc1nc(-c2ccccc2)sc1CN(C)c1nc2c(C(C)(C)C)nn(C)c2c(=O)[nH]1 [Example 80, 3-tert-butyl-1-methyl-5-(methyl((4-methyl-2-phenylthiazol-5-yl)methyl)amino)-1H-pyrazolo[4,3-d]pyrimidin-7(6H)-one] | > 7.00
3 | CCCCN(Cc1ccc(Cl)c(Cl)c1)c1nc2c(CCC)nn(C)c2c(=O)[nH]1 [Example 46, 5-(butyl(3,4-dichlorobenzyl)amino)-1-methyl-3-propyl-1H-pyrazolo[4,3-d]pyrimidin-7(6H)-one] | 6.30 to 7.00
4 | CCCc1nn(C)c2c(=O)[nH]c(NCc3ccc4c(c3)CCO4)nc12 [Example 62, 5-((2,3-dihydrobenzofuran-5-yl)methylamino)-1-methyl-3-propyl-1H-pyrazolo[4,3-d]pyrimidin-7(6H)-one] | 6.30 to 7.00
5 | CCCc1nn(C)c2c(=O)[nH]c(NCc3ccc4ccn(C)c4c3)nc12 [Example 69, 1-methyl-5-((1-methyl-1H-indol-6-yl)methylamino)-3-propyl-1H-pyrazolo[4,3-d]pyrimidin-7(6H)-one] | 6.30 to 7.00
6 | Cc1nc(-c2cccc(CN(C)c3nc4c(C(C)(C)C)nn(C)c4c(=O)[nH]3)c2)cs1 [Example 90, 3-tert-butyl-1-methyl-5-(methyl(3-(2-methylthiazol-4-yl)benzyl)amino)-1H-pyrazolo[4,3-d]pyrimidin-7(6H)-one] | > 7.00
7 | CCCc1nn(C)c2c(=O)[nH]c(NCc3nn(-c4ccccc4)nc3C)nc12 [Example 52, 1-methyl-5-((5-methyl-2-phenyl-2H-1,2,3-triazol-4-yl)methylamino)-3-propyl-1H-pyrazolo[4,3-d]pyrimidin-7(6H)-one] | > 7.00
8 | Cn1nc(C2CCCC2)c2nc(NCc3ccc(Cl)c(Cl)c3)[nH]c(=O)c21 [Example 76, 3-cyclopentyl-5-(3,4-dichlorobenzylamino)-1-methyl-1H-pyrazolo[4,3-d]pyrimidin-7(6H)-one] | 6.30 to 7.00
9 | CCCc1nn(C)c2c(=O)[nH]c(NCc3ccc(S(N)(=O)=O)cc3)nc12 [Example 120, 4-((1-methyl-7-oxo-3-propyl-6,7-dihydro-1H-pyrazolo[4,3-d]pyrimidin-5-ylamino)methyl)benzenesulfonamide] | < 6.30
10 | CCCc1nn(C)c2c(=O)[nH]c(NCc3ccc(CN4CCOCC4)cc3)nc12 [Example 27, 1-methyl-5-(4-(morpholinomethyl)benzylamino)-3-propyl-1H-pyrazolo[4,3-d]pyrimidin-7(6H)-one] | 6.30 to 7.00
11 | CCCc1nn(C)c2c(=O)[nH]c(NCCc3ccc(Cl)cc3)nc12 [Example 79, 5-(4-chlorophenethylamino)-1-methyl-3-propyl-1H-pyrazolo[4,3-d]pyrimidin-7(6H)-one] | 6.30 to 7.00
12 | CC(C)CN(C)c1nc2c(C(C)(C)C)nn(C)c2c(=O)[nH]1 [Example 99, 3-tert-butyl-5-(isobutyl(methyl)amino)-1-methyl-1H-pyrazolo[4,3-d]pyrimidin-7(6H)-one] | > 7.00
13 | CCCc1nn(C)c2c(=O)[nH]c(N(C)Cc3ccc(N4CCOCC4)cc3)nc12 [Example 61, 1-methyl-5-(methyl(4-morpholinobenzyl)amino)-3-propyl-1H-pyrazolo[4,3-d]pyrimidin-7(6H)-one] | 6.30 to 7.00
14 | CCC(CC)CN(Cc1cccc(-n2cccn2)c1)c1nc2c(C(C)(C)C)nn(C)c2c(=O)[nH]1 [Example 121] | > 7.00
15 | CCCN(CCC)c1nc2c(C3CC3)nn(C)c2c(=O)[nH]1 [Example 125, 3-cyclopropyl-5-(dipropylamino)-1-methyl-1H-pyrazolo[4,3-d]pyrimidin-7(6H)-one] | 6.30 to 7.00
16 | CCCc1nn(C)c2c(=O)[nH]c(N(C)CCC)nc12 [Example 30, 1-methyl-5-(methyl(propyl)amino)-3-propyl-1H-pyrazolo[4,3-d]pyrimidin-7(6H)-one] | 6.30 to 7.00
17 | CCCc1nn(C)c2c(=O)[nH]c(NCCc3ccc(OCC)c(OCC)c3)nc12 [Example 82, 5-(3,4-diethoxyphenethylamino)-1-methyl-3-propyl-1H-pyrazolo[4,3-d]pyrimidin-7(6H)-one] | < 6.30
18 | CCCc1nn(C)c2c(=O)[nH]c(N3CCC(C(F)(F)F)CC3)nc12 [Example 60, 1-methyl-3-propyl-5-(4-(trifluoromethyl)piperidin-1-yl)-1H-pyrazolo[4,3-d]pyrimidin-7(6H)-one] | < 6.30
19 | CCCc1nn(C)c2c(=O)[nH]c(N(Cc3cccc(-n4cccn4)c3)CC(C)C)nc12 [Example 94] | > 7.00

Row | Structure (SMILES) | pIC50
20 | CCCc1nn(C)c2c(=O)[nH]c(N(Cc3cccc(N4CCOCC4)c3)CC(C)CC)nc12 (stereo not shown) [Example 114, 1-methyl-5-((2-methylbutyl)(3-morpholinobenzyl)amino)-3-propyl-1H-pyrazolo[4,3-d]pyrimidin-7(6H)-one] | > 7.00
21 | CCCc1nn(C)c2c(=O)[nH]c(N(Cc3cccc(N4CCOCC4)c3)CC(C)C)nc12 [Example 74, 5-(isobutyl(3-morpholinobenzyl)amino)-1-methyl-3-propyl-1H-pyrazolo[4,3-d]pyrimidin-7(6H)-one] | > 7.00
22 | CCCc1nn(C)c2c(=O)[nH]c(NCc3c(C)nn(Cc4ccccc4)c3C)nc12 [Example 91, 5-((1-benzyl-3,5-dimethyl-1H-pyrazol-4-yl)methylamino)-1-methyl-3-propyl-1H-pyrazolo[4,3-d]pyrimidin-7(6H)-one] | 6.30 to 7.00
23 | CCCc1nn(C)c2c(=O)[nH]c(NCc3cccc(-n4cncn4)c3)nc12 [Example 73] | 6.30 to 7.00
24 | CCCc1nn(C)c2c(=O)[nH]c(NCc3cccc(N4CCOCC4)c3)nc12 [Example 56, 1-methyl-5-(3-morpholinobenzylamino)-3-propyl-1H-pyrazolo[4,3-d]pyrimidin-7(6H)-one] | 6.30 to 7.00
25 | CCCc1nn(C)c2c(=O)[nH]c(N(C)Cc3cccc(-c4cncnc4)c3)nc12 [Example 12, 1-methyl-5-(methyl(3-(pyrimidin-5-yl)benzyl)amino)-3-propyl-1H-pyrazolo[4,3-d]pyrimidin-7(6H)-one] | 6.30 to 7.00
26 | CCC(C)CN(Cc1cccc(N2CCOCC2)c1)c1nc2c(C(C)(C)C)nn(C)c2c(=O)[nH]1 (stereo not shown) [Example 117, 3-tert-butyl-1-methyl-5-((2-methylbutyl)(3-morpholinobenzyl)amino)-1H-pyrazolo[4,3-d]pyrimidin-7(6H)-one] | > 7.00
27 | CCCc1nn(C)c2c(=O)[nH]c(N(Cc3ccc(F)cc3)CC(C)C)nc12 [Example 98, 5-((4-fluorobenzyl)(isobutyl)amino)-1-methyl-3-propyl-1H-pyrazolo[4,3-d]pyrimidin-7(6H)-one] | > 7.00
28 | Cn1nc(C2CCCC2)c2nc(N3CCCC3c3ccccc3)[nH]c(=O)c21 (stereo not shown) [Example 86, 3-cyclopentyl-1-methyl-5-(2-phenylpyrrolidin-1-yl)-1H-pyrazolo[4,3-d]pyrimidin-7(6H)-one] | > 7.00
29 | CCCc1nn(C)c2c(=O)[nH]c(N(C)Cc3cc(-c4ccccc4)nn3C)nc12 [Example 38, 1-methyl-5-(methyl((1-methyl-3-phenyl-1H-pyrazol-5-yl)methyl)amino)-3-propyl-1H-pyrazolo[4,3-d]pyrimidin-7(6H)-one] | > 7.00
30 | CC(C)CN(Cc1cccc(-n2cccc2)c1)c1nc2c(C(C)(C)C)nn(C)c2c(=O)[nH]1 [Example 100] | > 7.00
31 | CCCc1nn(C)c2c(=O)[nH]c(N(C)Cc3cccc(-c4csc(C)n4)c3)nc12 [Example 65, 1-methyl-5-(methyl(3-(2-methylthiazol-4-yl)benzyl)amino)-3-propyl-1H-pyrazolo[4,3-d]pyrimidin-7(6H)-one] | 6.30 to 7.00
32 | CCCc1nn(C)c2c(=O)[nH]c(N(CCC(C)(C)C)Cc3cccc(N4CCOCC4)c3)nc12 [Example 108, 5-((3,3-dimethylbutyl)(3-morpholinobenzyl)amino)-1-methyl-3-propyl-1H-pyrazolo[4,3-d]pyrimidin-7(6H)-one] | > 7.00
33 | CCCc1nn(C)c2c(=O)[nH]c(NCc3cccc(N4CCCC4)c3)nc12 [Example 26, 1-methyl-3-propyl-5-(3-(pyrrolidin-1-yl)benzylamino)-1H-pyrazolo[4,3-d]pyrimidin-7(6H)-one] | 6.30 to 7.00
34 | CCCc1nn(C)c2c(=O)[nH]c(NCc3cccc(-n4cccc4)c3)nc12 [Example 64] | 6.30 to 7.00
35 | CCCc1nn(C)c2c(=O)[nH]c(N(Cc3cccc(N4CCOCC4)c3)CC(C)CCC)nc12 (stereo not shown) [Example 113, 1-methyl-5-((2-methylpentyl)(3-morpholinobenzyl)amino)-3-propyl-1H-pyrazolo[4,3-d]pyrimidin-7(6H)-one] | > 7.00
36 | CCCc1nn(C)c2c(=O)[nH]c(N(C)CC(C)CC)nc12 (stereo not shown) [Example 112, 1-methyl-5-(methyl(2-methylbutyl)amino)-3-propyl-1H-pyrazolo[4,3-d]pyrimidin-7(6H)-one] | 6.30 to 7.00
37 | CCCC(C)CN(Cc1cccc(-n2cccn2)c1)c1nc2c(C(C)(C)C)nn(C)c2c(=O)[nH]1 (stereo not shown) [Example 122] | > 7.00

— patent publication US20080242661A1, “Novel compounds useful for the treatment of degenerative & inflammatory diseases” (priority 2006, published 2008)
